In patent US11345700B2, “Methods of preparing inhibitors of influenza viruses replication” (priority 2013, dated 2022):
Like-named read-outs stand apart in the source and are kept apart here.

How the values were obtained:
[1] = Human influenza challenge: safety assessment, adverse events; type: in vivo, healthy volunteers (humans)
Source text: A list of adverse events occurring in ≥10% of subjects in any treatment group is presented (Table 29). Influenza-like illness was the most frequently reported adverse event, and was reported by an approximately equal proportion of subjects in the placebo and Compound (1) groups.

influenza A strains = assay: microbe, parasite or virus in culture; type: cell-based
[2] = system: Influenza A/California/04/2009 (pndH1N1) virus; type: in vivo, BALB/c mice
[3] = 1 mg/kg p.o. twice a day for 10 days starting 2 hours prior to virus exposure
[4] = 3 mg/kg p.o. twice a day for 10 days starting 2 hours prior to virus exposure
[5] = 10 mg/kg p.o. twice a day for 10 days starting 2 hours prior to virus exposure

O=C(O)[C@H]1[C@H]2CC[C@H](CC2)[C@@H]1Nc1nc(-c2c[nH]c3ncc(F)cc23)ncc1F [Compound (1)]
Adverse event: Dermatitis contact ([1]; 400 mg, N = 19): 0 n(%) | Adverse event: Headache ([1]; 400 mg, N = 19): 4 (21.1) n(%) | Adverse event: Influenza-like illness ([1]; 400 mg, N = 19): 10 (52.6) n(%) | Adverse event: Malaise ([1]; 400 mg, N = 19): 0 n(%) | Adverse event: Nasal congestion ([1]; 400 mg, N = 19): 0 n(%) | Adverse event: Nausea ([1]; 400 mg, N = 19): 2 (10.5) n(%) | Adverse event: Oropharylngeal pain ([1]; 400 mg, N = 19): 0 n(%) | Adverse event: Rhinorrhea ([1]; 400 mg, N = 19): 2 (10.5) n(%) | Adverse event: Spirometry abnormal ([1]; 400 mg, N = 19): 4 (21.1) n(%) | Adverse event: Tension Headache ([1]; 400 mg, N = 19): 2 (10.5) n(%) | Adverse event: Alanine aminotransferase increased ([1]; 900/600 mg, N = 19): 0 n(%) | Adverse event: Aspartate aminotransferase increased ([1]; 900/600 mg, N = 19): 0 n(%) | Adverse event: Blood phosphorus decreased ([1]; 900/600 mg, N = 19): 6 (31.6) n(%) | Adverse event: Dermatitis contact ([1]; 900/600 mg, N = 19): 0 n(%) | Adverse event: Headache ([1]; 900/600 mg, N = 19): 0 n(%) | Adverse event: Influenza-like illness ([1]; 900/600 mg, N = 19): 9 (47.4) n(%) | Adverse event: Malaise ([1]; 900/600 mg, N = 19): 0 n(%) | Adverse event: Nasal congestion ([1]; 900/600 mg, N = 19): 0 n(%) | Adverse event: Nausea ([1]; 900/600 mg, N = 19): 1 (5.3) n(%) | Adverse event: Oropharylngeal pain ([1]; 900/600 mg, N = 19): 1 (5.3) n(%) | Adverse event: Rhinorrhea ([1]; 900/600 mg, N = 19): 0 n(%) | Adverse event: Spirometry abnormal ([1]; 900/600 mg, N = 19): 0 n(%) | Adverse event: Tension Headache ([1]; 900/600 mg, N = 19): 1 (5.3) n(%) | Adverse event: Alanine aminotransferase increased ([1]; 1200/600 mg, N = 18): 6 (33.3) n(%) | Adverse event: Aspartate aminotransferase increased ([1]; 1200/600 mg, N = 18): 2 (11.1) n(%) | Adverse event: Blood phosphorus decreased ([1]; 1200/600 mg, N = 18): 4 (22.2) n(%) | Adverse event: Dermatitis contact ([1]; 1200/600 mg, N = 18): 0 n(%) | Adverse event: Headache ([1]; 1200/600 mg, N = 18): 2 (11.1) n(%) | Adverse event: Influenza-like illness ([1]; 1200/600 mg, N = 18): 7 (38.9) n(%) | Adverse event: Malaise ([1]; 1200/600 mg, N = 18): 0 n(%) | Adverse event: Nasal congestion ([1]; 1200/600 mg, N = 18): 1 (5.6) n(%) | Adverse event: Nausea ([1]; 1200/600 mg, N = 18): 0 n(%) | Adverse event: Oropharylngeal pain ([1]; 1200/600 mg, N = 18): 0 n(%) | Adverse event: Rhinorrhea ([1]; 1200/600 mg, N = 18): 1 (5.6) n(%) | Adverse event: Spirometry abnormal ([1]; 1200/600 mg, N = 18): 4 (22.2) n(%) | Adverse event: Tension Headache ([1]; 1200/600 mg, N = 18): 0 n(%) | adverse event incidence: decreased blood phosphorus level ([1]; Compound (1) groups): 18.1% | adverse event incidence: nasal congestion ([1]; Compound (1) groups): 1.4% | adverse event incidence: rhinorrhea ([1]; Compound (1) groups): 4.2% | Adverse event: Alanine aminotransferase increased ([1]; Pooled Compound (1), N = 72): 10 (13.9) n(%) | Adverse event: Aspartate aminotransferase increased ([1]; Pooled Compound (1), N = 72): 4 (5.6) n(%) | Adverse event: Blood phosphorus decreased ([1]; Pooled Compound (1), N = 72): 13 (18.1) n(%) | Adverse event: Dermatitis contact ([1]; Pooled Compound (1), N = 72): 3 (4.2) n(%) | Adverse event: Headache ([1]; Pooled Compound (1), N = 72): 7 (9.7) n(%) | Adverse event: Influenza-like illness ([1]; Pooled Compound (1), N = 72): 34 (47.2) n(%) | Adverse event: Malaise ([1]; Pooled Compound (1), N = 72): 2 (2.8) n(%) | Adverse event: Nasal congestion ([1]; Pooled Compound (1), N = 72): 1 (1.4) n(%) | Adverse event: Nausea ([1]; Pooled Compound (1), N = 72): 3 (4.2) n(%) | Adverse event: Oropharylngeal pain ([1]; Pooled Compound (1), N = 72): 3 (4.2) n(%) | Adverse event: Rhinorrhea ([1]; Pooled Compound (1), N = 72): 3 (4.2) n(%) | Adverse event: Spirometry abnormal ([1]; Pooled Compound (1), N = 72): 10 (13.9) n(%) | Adverse event: Tension Headache ([1]; Pooled Compound (1), N = 72): 3 (4.2) n(%) | discontinuations due to Compound (1)-related adverse events; serious adverse events ([1]; healthy volunteers, five daily doses): no discontinuations | alanine aminotransferase (ALT) ([1]; observed in both placebo and Compound (1) recipients): elevations in alanine aminotransferase (ALT) were observed | EC50 (influenza A strains; ATCC 2 / H1N1, MDCK, read-out: Cell Protection Assay EC50 ± SD): 1.9 ± 3 nM | EC50 (influenza A strains; ATCC 3 / H1N1, MDCK, read-out: Cell Protection Assay EC50 ± SD): 1.9 ± 3.2 nM | EC50 (influenza A strains; H1N1, MDCK, in Sus scrofa, read-out: Cell Protection Assay EC50 ± SD, A/Swine/1976/31, H1N1): 0.47 ± 0.11 nM | EC50 (influenza A strains; H1N1, MDCK, in Sus scrofa, read-out: Cell Protection Assay EC50 ± SD, A/Swine/Iowa/15/30, H1N1): 0.65 ± 0.082 nM | EC50 (influenza A strains; H1N1, MDCK, read-out: Cell Protection Assay EC50 ± SD, A/New Jersey/8/76, H1N1): 0.2 ± 0.096 nM | EC50 (influenza A strains; H3N8, MDCK, in Equus caballus, read-out: Cell Protection Assay EC50 ± SD, A/Equine/2/Miami/63, H3N8): 0.5 ± 0.065 nM | Mean Lung Parameters (Day 6): Score (hemorrhage score 0-4) [2, 3]: 0.6 | Mean Lung Parameters (Day 6): Virus Titer [2, 3]: 5.5 Log10 CCID50/g | Mean Lung Parameters (Day 6): Weight [2, 3]: 246 mg | Mean Lung Parameters (Day 6): Score (hemorrhage score 0-4) [2, 4]: 0.0 | Mean Lung Parameters (Day 6): Virus Titer [2, 4]: 3.1 Log10 CCID50/g | Mean Lung Parameters (Day 6): Weight [2, 4]: 123 mg | Mean Lung Parameters (Day 6): Score (hemorrhage score 0-4) [2, 5]: 0.2 | Mean Lung Parameters (Day 6): Virus Titer [2, 5]: <2.6^d*** Log10 CCID50/g | Mean Lung Parameters (Day 6): Weight [2, 5]: 132 mg
